These are literature values, as cited in patent publication US8524751B2, “4-oxadiazol-2-YL-indazoles as inhibitors of P13 kinases” (priority 2009, dated 2013).

What is called pIC50 is the negative decadic logarithm of the IC50, by convention in mol/L.

One data set has as its system Class I PI3-kinases. Particulars: each of the Class I PI3-kinases.

Molecules are shown by their SMILES. pIC50: −log10 of the molar value. Read-outs that look alike come from different tables or passages of the source.

As to `O=c1cc(N2CCOCC2)oc2c(-c3ccccc3)cccc12` [LY294002], the pIC50 with Class I PI3-kinases (Fruman et al. 1998, read-out: IC50 values against each of these PI3-kinases) was 4.70 to 4.82; at CK2 protein kinase it was 5.00 to 5.30.
As to `COC[C@H]1OC(=O)c2coc3c2[C@@]1(C)C1=C(C3=O)[C@@H]2CCC(=O)[C@@]2(C)C[C@H]1OC(C)=O` [wortmannin], the pIC50 in the data set on Class I PI3-kinases (read-out: IC50 values against each of the various Class I PI3-kinases) was 8.00 to 9.00.
